What was measured:
Experiment in all cases: cells
MS-1 = assay type: functional, cell-based, Homo sapiens; details: Homo sapiens, MS-1;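 further: growth inhibition of MS-1 cells, read out by cell viability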
Description: SANGER: Inhibition of human MS-1 cell growth in a cell viability assay.

KE-37 = assay type: functional, cell-based, Homo sapiens; details: Homo sapiens, KE-37;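 further: growth inhibition of KE-37 cells, read out with a cell viability assay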
Description: SANGER: Inhibition of human KE-37 cell growth in a cell viability assay.

L-363 = assay type: functional, cell-based, Homo sapiens; details: Homo sapiens, L-363
Description: SANGER: Inhibition of human L-363 cell growth in a cell viability assay.

A4-Fuk = assay type: functional, cell-based, Homo sapiens; details: Homo sapiens, A4-Fuk;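 further: growth inhibition of A4-Fuk cells, read out by a cell viability assay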
Description: SANGER: Inhibition of human A4-Fuk cell growth in a cell viability assay.

LU-139 = assay type: functional, cell-based, Homo sapiens; details: Homo sapiens, LU-139
Description: SANGER: Inhibition of human LU-139 cell growth in a cell viability assay.

JVM-2 = assay type: functional, cell-based, Homo sapiens; details: Homo sapiens, JVM-2;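 further: growth inhibition of JVM-2 cells determined by a cell viability assay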
Description: SANGER: Inhibition of human JVM-2 cell growth in a cell viability assay.

LC-2-ad = assay type: functional, cell-based, Homo sapiens; details: Homo sapiens, LC-2-ad;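 further: growth inhibition of human LC-2-ad cells, read out with a cell viability assay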
Description: SANGER: Inhibition of human LC-2-ad cell growth in a cell viability assay.

LXF-289 cell line = assay type: functional, cell-based; details: Homo sapiens
Description: SANGER: Inhibition of human LXF-289 cell growth in a cell viability assay.

LAN-6 = assay type: functional, cell-based, Homo sapiens; details: Homo sapiens, LAN-6;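 further: growth inhibition of LAN-6 cells, determined with a cell viability assay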
Description: SANGER: Inhibition of human LAN-6 cell growth in a cell viability assay.

RCC10RGB = assay type: functional, cell-based, Homo sapiens; details: Homo sapiens, RCC10RGB;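 further: growth inhibition of human RCC10RGB cells, read out by a cell viability assay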
Description: SANGER: Inhibition of human RCC10RGB cell growth in a cell viability assay.

NCI-H747 = assay type: functional, cell-based, Homo sapiens; details: Homo sapiens, NCI-H747;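 further: growth inhibition of human NCI-H747 cells, read out by a cell viability assay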
Description: SANGER: Inhibition of human NCI-H747 cell growth in a cell viability assay.

LU-134-A = assay type: functional, cell-based, Homo sapiens; details: Homo sapiens, LU-134-A
Description: SANGER: Inhibition of human LU-134-A cell growth in a cell viability assay.

RKO = assay type: functional, cell-based, Homo sapiens; details: Homo sapiens, RKO;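 further: growth inhibition of human RKO cells, read out with a cell viability assay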
Description: SANGER: Inhibition of human RKO cell growth in a cell viability assay.

AM-38 = assay type: functional, cell-based, Homo sapiens; details: Homo sapiens, AM-38;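 further: growth inhibition of AM-38 cells of human origin, read out by a cell viability assay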
Description: SANGER: Inhibition of human AM-38 cell growth in a cell viability assay.

SW684 = assay type: functional, cell-based, Homo sapiens; details: Homo sapiens, SW684; read-out: IC50;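 further: growth inhibition of human SW684 cells, measured by a cell viability assay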
Description: SANGER: Inhibition of human SW684 cell growth in a cell viability assay.

EW-18 = assay type: functional, cell-based, Homo sapiens; details: Homo sapiens, EW-18; read-out: IC50;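 further: growth inhibition of EW-18 cells, read out by a cell viability assay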
Description: SANGER: Inhibition of human EW-18 cell growth in a cell viability assay.

NCI-H23 = assay type: functional, cell-based, Homo sapiens; details: Homo sapiens, NCI-H23;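 further: cell viability assay measuring growth inhibition of NCI-H23 cells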
Description: SANGER: Inhibition of human NCI-H23 cell growth in a cell viability assay.

D-263MG = assay type: functional, cell-based, Homo sapiens; details: Homo sapiens, D-263MG
Description: SANGER: Inhibition of human D-263MG cell growth in a cell viability assay.

COLO-320-HSR = assay type: functional, cell-based, Homo sapiens; details: Homo sapiens, COLO-320-HSR;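 further: growth inhibition of COLO-320-HSR cells, determined with a cell viability assay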
Description: SANGER: Inhibition of human COLO-320-HSR cell growth in a cell viability assay.

TE-11 = assay type: functional, cell-based; details: Homo sapiens;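 further: growth inhibition of human TE-11 cells, read out by a cell viability assay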
Description: SANGER: Inhibition of human TE-11 cell growth in a cell viability assay.

EKVX = assay type: functional, cell-based, Homo sapiens; details: Homo sapiens, EKVX;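 further: growth inhibition of human EKVX cells, read out with a cell viability assay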
Description: SANGER: Inhibition of human EKVX cell growth in a cell viability assay.

SH-4 = assay type: functional, cell-based; details: Homo sapiens;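 further: growth inhibition of SH-4 cells, read out with a cell viability assay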
Description: SANGER: Inhibition of human SH-4 cell growth in a cell viability assay.

LS-1034 = assay type: functional, cell-based, Homo sapiens; details: Homo sapiens, LS-1034
Description: SANGER: Inhibition of human LS-1034 cell growth in a cell viability assay.

HDLM-2 = assay type: functional, cell-based, Homo sapiens; details: Homo sapiens, HDLM-2;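 further: cell viability assay measuring suppression of HDLM-2 proliferation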
Description: SANGER: Inhibition of human HDLM-2 cell growth in a cell viability assay.

KY821 = assay type: functional, cell-based, Homo sapiens; details: Homo sapiens, KY821;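 further: growth inhibition of human KY821 cells, read out by a cell viability assay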
Description: SANGER: Inhibition of human KY821 cell growth in a cell viability assay.

NCI-H69 = assay type: functional, cell-based, Homo sapiens; details: Homo sapiens, NCI-H69;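 further: growth inhibition of the cell line, read out with a cell viability assay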
Description: SANGER: Inhibition of human NCI-H69 cell growth in a cell viability assay.

ES3 = assay type: functional, cell-based, Homo sapiens; details: Homo sapiens, ES3;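 further: growth inhibition of ES3 cells, read out with a cell viability assay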
Description: SANGER: Inhibition of human ES3 cell growth in a cell viability assay.

SNU-5 = assay type: functional, cell-based, Homo sapiens; details: Homo sapiens, SNU-5;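 further: cell viability readout used to measure growth inhibition in human NCI-SNU-5 cells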
Description: SANGER: Inhibition of human NCI-SNU-5 cell growth in a cell viability assay.

HAL-01 = assay type: functional, cell-based, Homo sapiens; details: Homo sapiens, HAL-01;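 further: growth inhibition of human HAL-01 cells, read out with a cell viability assay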
Description: SANGER: Inhibition of human HAL-01 cell growth in a cell viability assay.

CTV-1 = assay type: functional, cell-based, Homo sapiens; details: Homo sapiens, CTV-1;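 further: growth inhibition of the cell line, read out with a cell viability assay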
Description: SANGER: Inhibition of human CTV-1 cell growth in a cell viability assay.

NKM-1 = assay type: functional, cell-based, Homo sapiens; details: Homo sapiens, NKM-1;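 further: growth inhibition of NKM-1 cells, read out with a cell viability assay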
Description: SANGER: Inhibition of human NKM-1 cell growth in a cell viability assay.

OS-RC-2 = assay type: functional, cell-based, Homo sapiens; details: Homo sapiens, OS-RC-2;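 further: growth inhibition of human OS-RC-2 cells, measured by a cell viability assay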
Description: SANGER: Inhibition of human OS-RC-2 cell growth in a cell viability assay.

LAMA-84 = assay type: functional, cell-based, Homo sapiens; details: Homo sapiens, LAMA-84;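 further: growth inhibition of LAMA-84 cells, read out with a cell viability assay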
Description: SANGER: Inhibition of human LAMA-84 cell growth in a cell viability assay.

Lu-65 = assay type: functional, cell-based, Homo sapiens; details: Homo sapiens, Lu-65;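 further: growth inhibition of Lu-65 cancer cells, read out by a cell viability assay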
Description: SANGER: Inhibition of human LU-65 cell growth in a cell viability assay.

KG-1 = assay type: functional, cell-based, Homo sapiens; details: Homo sapiens, KG-1;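 further: growth inhibition of KG-1 cells, read out by a cell viability assay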
Description: SANGER: Inhibition of human KG-1 cell growth in a cell viability assay.

KURAMOCHI = assay type: functional, cell-based, Homo sapiens; details: Homo sapiens, KURAMOCHI;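 further: growth inhibition of KURAMOCHI cells, read out with a cell viability assay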
Description: SANGER: Inhibition of human KURAMOCHI cell growth in a cell viability assay.

JVM-3 = assay type: functional, cell-based, Homo sapiens; details: Homo sapiens, JVM-3;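 further: growth inhibition of human JVM-3 cells, read out with a cell viability assay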
Description: SANGER: Inhibition of human JVM-3 cell growth in a cell viability assay.

SF-126 = assay type: functional, cell-based, Homo sapiens; details: Homo sapiens, SF-126;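 further: growth inhibition of human SF126 cells, read out with a cell viability assay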
Description: SANGER: Inhibition of human SF126 cell growth in a cell viability assay.

NCI-H82 = assay type: functional, cell-based, Homo sapiens; details: Homo sapiens, NCI-H82;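 further: growth inhibition of NCI-H82 cells, measured with a cell viability readout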
Description: SANGER: Inhibition of human NCI-H82 cell growth in a cell viability assay.

RS4-11 = assay type: functional, cell-based, Homo sapiens; details: Homo sapiens, RS4-11;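 further: growth inhibition of RS4-11 cells, read out by a cell viability assay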
Description: SANGER: Inhibition of human RS4-11 cell growth in a cell viability assay.

TGBC24TKB = assay type: functional, cell-based; details: Homo sapiens;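 further: growth inhibition of human TGBC24TKB cells, read out with a cell viability assay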
Description: SANGER: Inhibition of human TGBC24TKB cell growth in a cell viability assay.

C8166 = assay type: functional, cell-based, Homo sapiens; details: Homo sapiens, C8166;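 further: growth inhibition of human C8166 cells measured by a cell viability assay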
Description: SANGER: Inhibition of human C8166 cell growth in a cell viability assay.

LB1047-RCC = assay type: functional, cell-based, Homo sapiens; details: Homo sapiens, LB1047-RCC;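 further: inhibition of cell growth, determined with a cell viability assay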
Description: SANGER: Inhibition of human LB1047-RCC cell growth in a cell viability assay.

A388 = assay type: functional, cell-based; details: Homo sapiens;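 further: growth inhibition of human A388 cells, read out with a cell viability assay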
Description: SANGER: Inhibition of human A388 cell growth in a cell viability assay.

ES6 = assay type: functional, cell-based; details: Homo sapiens;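 further: growth inhibition of human ES6 cells, read out with a cell viability assay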
Description: SANGER: Inhibition of human ES6 cell growth in a cell viability assay.

QIMR-WIL = assay type: functional, cell-based, Homo sapiens; details: Homo sapiens, QIMR-WIL;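 further: growth inhibition of QIMR-WIL cells, read out with a cell viability assay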
Description: SANGER: Inhibition of human QIMR-WIL cell growth in a cell viability assay.

NCI-H1650 = assay type: functional, cell-based, Homo sapiens; details: Homo sapiens, NCI-H1650;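 further: growth inhibition of human NCI-H1650 cells measured by a cell viability assay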
Description: SANGER: Inhibition of human NCI-H1650 cell growth in a cell viability assay.

NCI-H526 = assay type: functional, cell-based, Homo sapiens; details: Homo sapiens, NCI-H526;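 further: growth inhibition of the human NCI-H526 cell line, measured by a cell viability assay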
Description: SANGER: Inhibition of human NCI-H526 cell growth in a cell viability assay.

LS-123 = assay type: functional, cell-based, Homo sapiens; details: Homo sapiens, LS-123
Description: SANGER: Inhibition of human LS-123 cell growth in a cell viability assay.

HH = assay type: functional, cell-based, Homo sapiens; details: Homo sapiens, HH
Description: SANGER: Inhibition of human HH cell growth in a cell viability assay.

Measured: IC50

COc1ccc(-c2cc3nccn3c(Nc3ncccc3C(N)=O)n2)cc1OC
4.32 µM: LU-134-A
1.17 µM: OS-RC-2
2.2 µM: C8166
0.835 µM: KE-37
5.95 µM: A388
1.81 µM: A4-Fuk
1.06 µM: NKM-1
1.23 µM: RS4-11
0.741 µM: LB1047-RCC
2.9 µM: COLO-320-HSR
1.5 µM: CTV-1
5.28 µM: NCI-H526
1.82 µM: LC-2-ad
2.93 µM: L-363
2.22 µM: Lu-65
4.58 µM: EW-18
0.582 µM: QIMR-WIL
7.7 µM: MS-1
2.87 µM: KG-1
3.03 µM: ES3
7.41 µM: KURAMOCHI
1.24 µM: ES6
2.77 µM: RKO
> 8 µM: all other assays above

COC(=O)[C@H](CCSC)NC(=O)c1ccc(NC[C@@H](N)CS)cc1-c1ccccc1
> 1.02 µM: all assays above

OC[C@H](Cc1ccccc1)Nc1nc(Oc2ccc3c(c2)CCC3)nc2c1ncn2Cc1ccc(-c2ccccc2)cc1
7.61 µM: LXF-289 cell line
9.49 µM: LS-123
9.16 µM: HAL-01
9.31 µM: KE-37
8.52 µM: SW684
6.65 µM: ES3 | QIMR-WIL
6.66 µM: L-363
8.53 µM: LC-2-ad
3.82 µM: KURAMOCHI
3.37 µM: RKO
> 10.2 µM: all other assays above

O=S(=O)(O)c1ccc2cc(/N=N/c3cc(S(=O)(=O)O)c4cccnc4c3O)ccc2c1
> 16 µM: all assays above

NC(=O)c1cccc(-c2cc(Nc3ccc(OC(F)(F)F)cc3)ncn2)c1
0.163 µM: LAMA-84
> 1.28 µM: all other assays above

From ChEMBL document CHEMBL1201861, “Genomics of Drug Sensitity in Cancer screening data, Wellcome Trust Sanger Institute”
